Experimental data taken from ChEMBL document CHEMBL1144464, “Mutations in fusA associated with posttherapy fusidic acid resistance in Clostridium difficile” (2007).

Experiments:
Format in all cases: functional
Clostridioides difficile [1] = assay: Antibacterial activity against fusidic acid resistant Clostridium difficile 57:3 isolate with fusA S116L and A374V mutation after 35 to 40 days
Clostridioides difficile [2] = assay: Antibacterial activity against fusidic acid resistant Clostridium difficile 26:2 isolate with fusA D432N mutation after 8 to 13 days
Clostridioides difficile [3] = assay: Antibacterial activity against fusidic acid resistant Clostridium difficile 49:2 isolate after 8 to 13 days
Clostridioides difficile [4] = assay: Antibacterial activity against fusidic acid resistant Clostridium difficile 26:1 isolate after 1 day; conditions: 24 h
Clostridioides difficile [5] = assay: Antibacterial activity against fusidic acid resistant Clostridium difficile 26:3 isolate with fusA M16I and H455N mutation after 35 to 40 days
Clostridioides difficile [6] = assay: Antibacterial activity against fusidic acid resistant Clostridium difficile 49:1 isolate after 1 day; conditions: 24 h
Clostridioides difficile [7] = assay: Antibacterial activity against fusidic acid resistant Clostridium difficile 49:3 isolate with fusA S116L and A374V mutation after 35 to 40 days
Clostridioides difficile [8] = assay: Antibacterial activity against fusidic acid resistant Clostridium difficile 51:1 isolate after 1 day; conditions: 24 h
Clostridioides difficile [9] = assay: Antibacterial activity against fusidic acid resistant Clostridium difficile 51:2 isolate with fusA S449P mutation after 8 to 13 days
Clostridioides difficile [10] = assay: Antibacterial activity against fusidic acid resistant Clostridium difficile 57:1 isolate after 1 day; conditions: 24 h
Clostridioides difficile [11] = assay: Antibacterial activity against fusidic acid resistant Clostridium difficile 62:1 isolate after 1 day; conditions: 24 h
Clostridioides difficile [12] = assay: Antibacterial activity against fusidic acid resistant Clostridium difficile 62:2 isolate after 8 to 13 days
Clostridioides difficile [13] = assay: Antibacterial activity against fusidic acid resistant Clostridium difficile 62:3 isolate with fusA A375 deletion after 35 to 40 days
Clostridioides difficile [14] = assay: Antibacterial activity against fusidic acid resistant Clostridium difficile 63:1 isolate after 1 day; conditions: 24 h
Clostridioides difficile [15] = assay: Antibacterial activity against fusidic acid resistant Clostridium difficile 63:2 isolate with fusA T434I after 8 to 13 days
Clostridioides difficile [16] = assay: Antibacterial activity against fusidic acid resistant Clostridium difficile 72:1 isolate after 1 day; conditions: 24 h
Clostridioides difficile [17] = assay: Antibacterial activity against fusidic acid resistant Clostridium difficile 72:2 isolate with fusA S116L and A374V mutation after 8 to 13 days
Clostridioides difficile [18] = assay: Antibacterial activity against fusidic acid resistant Clostridium difficile 73:1 isolate after 1 day; conditions: 24 h
Clostridioides difficile [19] = assay: Antibacterial activity against fusidic acid resistant Clostridium difficile 73:2 isolate with fusA I459R mutation after 8 to 13 days
Clostridioides difficile [20] = assay: Antibacterial activity against fusidic acid resistant Clostridium difficile 100:1 isolate after 1 day; conditions: 24 h
Clostridioides difficile [21] = assay: Antibacterial activity against fusidic acid resistant Clostridium difficile 100:2 isolate with fusA V119A mutation after 8 to 13 days
Clostridioides difficile [22] = assay: Antibacterial activity against fusidic acid resistant Clostridium difficile 107:1 isolate after 1 day; conditions: 24 h
Clostridioides difficile [23] = assay: Antibacterial activity against fusidic acid resistant Clostridium difficile 107:3 isolate with fusA A459R mutation after 35 to 40 days
Clostridioides difficile [24] = assay: Antibacterial activity against fusidic acid resistant Clostridium difficile 248:1 isolate after 1 day; conditions: 24 h
Clostridioides difficile [25] = assay: Antibacterial activity against fusidic acid resistant Clostridium difficile 248:3 isolate with fusA H455R mutation after 35 to 40 days
Clostridioides difficile [26] = assay: Antibacterial activity against fusidic acid resistant Clostridium difficile 58:1 isolate with fusA H455Q mutation after 1 day; conditions: 24 h
Clostridioides difficile [27] = assay: Antibacterial activity against fusidic acid resistant Clostridium difficile 58:2 isolate with fusA H455Q mutation after 8 to 13 days

Measured: MIC

CC(=O)O[C@H]1C[C@@]2(C)[C@@H](C[C@@H](O)[C@H]3[C@@]4(C)CC[C@@H](O)[C@@H](C)[C@@H]4CC[C@@]32C)/C1=C(\CCC=C(C)C)C(=O)O [FUSIDIC ACID]
64 µg/mL: Clostridioides difficile [15]
0.5 µg/mL: Clostridioides difficile [18]
4 µg/mL: Clostridioides difficile [13]
> 256 µg/mL: Clostridioides difficile [1] | Clostridioides difficile [2] | Clostridioides difficile [5] | Clostridioides difficile [7] | Clostridioides difficile [9] | Clostridioides difficile [17] | Clostridioides difficile [19] | Clostridioides difficile [21] | Clostridioides difficile [23] | Clostridioides difficile [25] | Clostridioides difficile [26] | Clostridioides difficile [27]
0.38 µg/mL: Clostridioides difficile [4] | Clostridioides difficile [10] | Clostridioides difficile [20]
0.19 µg/mL: Clostridioides difficile [22]
0.125 µg/mL: Clostridioides difficile [24]
0.25 µg/mL: Clostridioides difficile [3] | Clostridioides difficile [6] | Clostridioides difficile [8] | Clostridioides difficile [11] | Clostridioides difficile [12] | Clostridioides difficile [14] | Clostridioides difficile [16]
